Entries after “also recorded” stand apart in the source; their conditions may differ.
How the values were obtained:
Assay type in all cases: in vivo, mouse
[1] = Serum triglyceride level measurement (bichromatic assay), Example 8; details: HF diet mice (Example 8); vs control diet
Source text: (§1) Mice, diet, and drug treatment. WT male C57/BL6 male mice were maintained on either a standard laboratory chow-fed diet (CFD) with 13% kcal fat, (diet #5053, Lab Diet, Inc, St. Louis, Mo.) or a high fat, western style diet (HFD) with 60% kcals from fat, (diet #58126, Lab Diet, Inc., St. Louis, Mo.) for 4 months. One month after the start of the high fat diet treatment, the high fat diet group was further split into 2 groups for 3 months: i) high fat diet and the drinking water containing 1% DMSO; ii) high fat diet and the drinking water containing 1.5 mg/100 ml AC261066, a specific RARβ agonist. Then mice were sacrificed by cervical dislocation. Blood and various tissue samples were harvested.
Serum triglyceride level measurement. The analysis of serum triglyceride levels was carried out using a bichromatic assay at the Laboratory of Comparative Pathology of the Memorial Sloan-Kettering Cancer Center. Chow-fed diet (CFD) n=2; high fat diet (HFD) n=3; high fat diet+AC261066 (HFDAC) n=5.

[2] = tested on: HF-fed C57/BL6 mice; assay: HF-fed mice treated 3 months: body weight, GTT, fasting glucose (Example 22)
Protocol: METHODS. Preparation of RARβ agonists solution. AC261066 and AC55649 were dissolved in dimethyl sulfoxide (DMSO) at the concentration of 3.0 mg/ml and diluted in the drinking water for mice to the final concentration of 3.0-mg/100 ml. Mice, diet, and drug treatments. Wt male C57/BL6 male mice were maintained on either a standard laboratory chow-fed diet (Con) with 13% kcal fat, (diet #5053, Lab Diet, Inc, St. Louis, Mo., [n=4]) or a high fat, western style diet (HFD) with 45% kcals from fat, (diet #58126, Lab Diet, Inc., St. Louis, Mo.) for 3 months. Two weeks after the start of the HFD treatment, the HFD group was further split into 3 groups for 3 months: i) HFD and drinking water containing 1% DMSO (n=5); ii) high fat diet (HFD) and drinking water containing 3.0 mg/100 ml AC261066, a specific RARβ agonist (n=5) or iii) HFD and drinking water containing 3.0 mg/100 ml AC55649, a specific RARβ agonist (n=4). After 3 months the mice were tested for glucose intolerance with an intra-peritoneal glucose tolerance test (GTT). Mice were then sacrificed by cervical dislocation. Blood and various tissue samples were harvested.
Glucose Tolerance Test (GTT). Glucose tolerance was performed using an intraperitoneal glucose tolerance test (GTT). Mice were fasted overnight (˜16 hrs) followed by intra-peritoneal injections (n=3-5 per group) of 50% glucose in PBS at 2.0 g of glucose/kg of body weight. Tail vein blood was collected at 15, 30, 45, 60, and 120 minutes post-injection for glucose measurements using a FreeStyle Lite Blood Glucose Monitoring System (Abbott Diabetes Care, Inc. Alameda, Calif.). Random and fasting blood glucose measurements were taken from tail veins of 4 mice per group at 2-3 random time points daily or just prior to GTT. Means are expressed as ±standard error of the mean (S.E.M) and P-values were calculated using one-way analysis of variance followed by Bonferroni post-hoc analysis. Grubbs' maximum normal residual test was used for detection of one or more outliers.

[3] = tested on: 4-HNE, oxidative stress in pancreatic islets; assay: 4-hydroxynonenal (4-HNE) staining of pancreas, HF-fed mice; details: HF diet mice, AC261066 in drinking water; vs HF-vehicle
Source text: as §1
4-hydroxynonenal (4-HNE) staining. Paraffin-embedded sections (from two to four mice per group) were deparaffinized and rehydrated, and antigen retrieval was performed using an antigen unmasking solution (Vector Laboratories, H-3300). After quenching endogenous peroxidase with 3% H2O2, the tissue sections were blocked with the blocking reagent (from the M.O.M. kit from Vector Laboratories). Then, tissue sections were incubated with a 4-HNE antibody (1:400; mouse monoclonal antibody; Abcam, ab48506) overnight at 4° C. The sections were then incubated with secondary antibodies (1:200, anti-mouse IgG from the M.O.M kit). […]

[4] = tested on: renal stellate cells (RSCs); assay: Double immunofluorescence (vimentin, α-SMA) of renal stellate cells in Db/Db mice; details: Db/Db mice treated for 4 weeks
Source text: Retinoic Acid Receptor β (RARβ) Agonists Diminish The Activation of Fibrogenic Kidney Stellate Cells. Given that we observed a significant decrease in mRNA transcripts of α-SMA we measured kidney protein expression of α-SMA in fibrogenic renal stellate cells Renal stellate cells (RSCs) are resident kidney fibroblasts, which in response to inflammation undergo differentiation to “activated” myofibroblasts that secrete contractile proteins such as α-SMA. […] RSCs express the mesenchymal protein marker vimentin. We used double immunofluorescence to label RSCs and determine the percentage of activated RSCs expressing the fibrogenic protein α-SMA. Using Db/Db mice, which spontaneously diabetes and DN in a similar manner to humans, we detected more than a 4-fold increase in activated α-SMA positive RSCs compared to wt con mice (FIG. 33F, G). Db/Db mice treated with AC261066 for 4 weeks had more than a 50% reduction in α-SMA positive RSCs (FIG. 33F, G).
METHODS. Immunofluorescence and Immunostaining Microscopy-Paraffin embedded pancreatic tissue sections were incubated with antibodies against: insulin (mouse monoclonal 1:300, #1061, Beta Cell Biology Consortium), vimentin (rabbit polyclonal 1:500, Santa Cruz), or α-SMA (mouse monoclonal, 1:1000, Dako, Inc).

[5] = tested on: TNF-α, RARβ2, LRAT mRNA; assay: Semi-quantitative PCR of kidney, HF-fed mice; details: HF diet mice 4 months
Source text: as §1
Semi-Quantitative PCR. Total RNA was extracted from mouse tissues using TRIzol reagent (Life technologies) and (1 μg) was used to synthesize cDNA. cDNA synthesis was performed at 42° C. for 1 h in a final volume of 20 μl using qScript (Quanta, MD). Semi-quantitative PCR were performed Taq DNA polymerase (Invitrogen, CA). Three step PCR was run as follows: 94° C. for 30 s, 58-64° C. for 45 s for primer annealing and 72° C. for 1 min for primer extension. The number of cycles for each primer pair for amplification in the linear range was determined experimentally. PCR products were resolved on 2% agarose gels and visualized by staining with ehtidium bromide. Primers for gene expression used were as follows: […]

**Q.** What does the source list for `CCCCOCCOc1nc(-c2ccc(C(=O)O)c(F)c2)sc1C` [AC261066]?
**A.** serum triglyceride levels [1]: does not increase; also recorded: does not affect; glucose tolerance and area under the curve glucose [2]: improved; overnight fasting glucose levels [2]: significant reductions; decrease in body weights compared to HF-fed mice ([2]; 3.0 mg/100 ml drinking water): ~10%; 4-HNE level (oxidative stress) in pancreatic islets [3]: reduces oxidative stress; also recorded: markedly lower; reduction in α-SMA positive RSCs [4]: > 50%; kidney LRAT mRNA level [5]: restores; kidney RARβ2 mRNA level [5]: restores; also recorded: did not have decreased; kidney TNF-α mRNA level [5]: reduces

Reference: patent publication US20220304945A1, “METHODS OF TREATING METABOLIC SYNDROME RELATED CONDITIONS USING RETINOIC ACID RECEPTOR AGONISTS” (Cornell University, priority 2014, published 2022)
